# Laboratory results from US7875270B2, “Treatment solution and method for preventing posterior capsular opacification by selectively inducing detachment and/or death of lens epithelial cells” (Abbott Medical Optics Inc., priority 2002, dated 2011).
# Test system: human corneal endothelial cells (CEDCs)
# Assay: Confluent CEDC monolayers exposed to solutions; MTT cell viability
# Format: cell-based
# Conditions: 28 μM, 112 μM and 224 μM bumetanide, ≦200 mM NaCl, 3 μl of 5N NaOH
# Experimental: As described below, the confluent monolayers of LECs, CEDCs, and RPECs grown in 96-well flat-bottom plates are exposed to varying concentrations of NaCl (an osmolyte) solution. Two hundred μl of NaCl solution (prepared as described below) are added to each well at concentrations of 137 mM, 170 mM, 340 mM, 680 mM, 1360 mM and 2000 mM NaCl, respectively. The solutions have a pH of 8.0±0.4. The concentrations of NaCl correspond to final osmolarities of about 285 to 4000 mOsm/L, respectively.
# The primary and first passages of human lens epithelial cells, human corneal endothelial cells, and human retinal-pigmented epithelial cells are cultured. The LECs, the CEDCs, and the RPECs are isolated from post-mortem eyes by using standard techniques of cell isolation and enzyme digestion. See Uebersax E D, Grindstaff R D and Defoe D M Exp Eye Res. 2000 March; 70(3): 381-90; Wagner L M, Saleh S M, Boyle D J, and Takemoto D J. Mol Vis. 2002 Mar. 14; 8: 59-66; Cammarata P R, Schafer G, Chen S W, Guo Z, and Reeves R E. Invest Ophthalmol Vis Sci. 2002 February; 43(2): 425-33; Rakic J M, Galand A, and Vrensen G F. Exp Eye Res. 2000 November; 71(5): 489-94. LECs and CEDCs are cultured in Eagle's minimum essential medium (MEM). RPECs are cultured in Ham's F10 medium, supplemented with 2 mM glutamine, 25 mmol/L Hepes, pH 7.4, 10 U/mL penicillin, and 10 μg/mL streptomycin and 15% heat-inactivated foetal cow serum (FCS). […]
# After treatment, the treated cells are thoroughly washed, and cultured with fresh media for twelve hours before cell viability is assessed. The capability of these cells to survive at the indicated hypertonic stress levels is assessed by an MTT assay 12-24 hours post-exposure.
# MTT assay is an assay to assess mitochondria function, performed as described by Mosmann (Mosmann, T. J Immunol Methods. 1983 Dec. 16; 65(1-2): 55-63. The tetrazolium salt 3-(4,5-dimethylthiazol-2-yl)-2,5-diphenyl tetrazolium bromide (MTT; supplied by Sigma Chemical Co.) is dissolved in Phosphate's Balanced Salt (PBS) Solutions at 5 mg/ml and sterilized by passage through a 0.22 μm Millipore filter. MTT stock solution is added to growth media at a ratio of 1 to 10. Cells are incubated with this growth media for three to four hours. In cells that are alive at the time of adding MTT, mitochondrial dehydrogenase cleaves the tetrazolium ring into a dark blue formazan reaction product, which builds up in the cell. […] Cells in each well are scored as MTT-positive if they are completely filled with reaction product (in the case of unattached cells) or contain many formazan crystals emanating from multiple foci (in the case of attached or spread cells). MTT-reacted cultures are then lysised by dimethyl sulfoxide (DMSO) and read in a Microplate Reader to obtain a measure of cell viability. […]
smiles,measurement,value
CCCCNc1cc(C(=O)O)cc(S(N)(=O)=O)c1Oc1ccccc1 [bumetanide],CEDCs killed or removed,< 30%
